PMC11582101, “Unlocking the potential: unveiling tyrphostins with Michael-reactive cyanoacrylate motif as promising inhibitors of human 5-lipoxygenase” (Pflugers Archiv, 2024)
“Also recorded” adds a separate entry of the source. Like-named read-outs stand apart in the source and are kept apart here.

Experiments:
[1] = target: T1, 12-LO (Homo sapiens, UniProt P18054); assay: 12-HETE formation in platelets; details: 20 µM AA, 2.5 µM A23187, n = 3–6
T1 sequence (P18054 1-663): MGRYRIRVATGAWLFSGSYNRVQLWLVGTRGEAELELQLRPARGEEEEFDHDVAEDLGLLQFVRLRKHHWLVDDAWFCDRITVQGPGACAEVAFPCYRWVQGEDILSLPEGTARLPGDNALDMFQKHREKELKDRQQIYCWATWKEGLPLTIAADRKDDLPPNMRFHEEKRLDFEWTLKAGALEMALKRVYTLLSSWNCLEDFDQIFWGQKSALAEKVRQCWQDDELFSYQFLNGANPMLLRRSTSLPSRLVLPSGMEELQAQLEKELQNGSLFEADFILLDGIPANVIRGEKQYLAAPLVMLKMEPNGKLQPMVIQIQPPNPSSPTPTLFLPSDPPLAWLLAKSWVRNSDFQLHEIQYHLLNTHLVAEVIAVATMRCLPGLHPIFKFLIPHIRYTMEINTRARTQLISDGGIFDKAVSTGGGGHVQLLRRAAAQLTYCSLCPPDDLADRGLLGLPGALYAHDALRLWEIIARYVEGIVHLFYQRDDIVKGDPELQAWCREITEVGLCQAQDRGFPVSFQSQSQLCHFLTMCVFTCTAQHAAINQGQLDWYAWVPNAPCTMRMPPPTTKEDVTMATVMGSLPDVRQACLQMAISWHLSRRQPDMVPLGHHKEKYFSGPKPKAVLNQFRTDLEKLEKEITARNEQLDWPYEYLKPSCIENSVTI

[2] = system: 15-LO; assay: 15-HETE formation in intact PMNL; details: for IC50: read-out: IC50 for inhibition of 15-HETE formation, PMNL
[3] = target: T2, 5-LO (Homo sapiens, UniProt P09917); assay: 5-LO product formation in intact PMNL
T2 sequence (P09917 1-674): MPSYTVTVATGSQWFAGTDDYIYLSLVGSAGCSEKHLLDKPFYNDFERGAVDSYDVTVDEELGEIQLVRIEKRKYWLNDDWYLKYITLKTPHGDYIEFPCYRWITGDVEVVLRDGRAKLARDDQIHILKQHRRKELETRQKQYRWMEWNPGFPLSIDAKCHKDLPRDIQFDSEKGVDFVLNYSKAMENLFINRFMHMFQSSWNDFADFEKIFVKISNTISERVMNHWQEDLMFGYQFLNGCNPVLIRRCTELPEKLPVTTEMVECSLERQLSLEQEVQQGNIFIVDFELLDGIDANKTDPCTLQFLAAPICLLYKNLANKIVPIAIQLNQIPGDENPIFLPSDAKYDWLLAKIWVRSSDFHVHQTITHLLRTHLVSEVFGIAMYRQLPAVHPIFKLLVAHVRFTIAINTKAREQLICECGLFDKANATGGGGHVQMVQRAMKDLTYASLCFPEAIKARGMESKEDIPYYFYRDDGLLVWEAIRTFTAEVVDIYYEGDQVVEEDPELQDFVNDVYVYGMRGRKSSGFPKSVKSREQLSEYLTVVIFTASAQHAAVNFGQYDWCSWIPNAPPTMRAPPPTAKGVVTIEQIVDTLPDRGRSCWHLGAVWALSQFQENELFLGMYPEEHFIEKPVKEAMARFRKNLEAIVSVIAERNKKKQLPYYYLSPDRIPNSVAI

[4] = target: T3, r5-LO_WT (Homo sapiens, UniProt P09917); assay: Covalent inhibitor binding by mass spectrometry, r5-LO_WT; details: 100 µM compound; for inhibitor adducts to r5-LO_WT detected by mass spectrometry: 20 µM protein, at least 1 h RT
T3 construct: made in house; host or cells: E. coli BL21 (DE3)
T3 sequence (P09917 1-674): T2 sequence (P09917 1-674)

[5] = target: T4, r5-LO_4C (Homo sapiens, UniProt P09917, C160S/C301S/C417S/C419S); assay: Covalent inhibitor binding by mass spectrometry, r5-LO_4C; details: 20 µM protein, 100 µM compound, at least 1 h RT
T4 construct: made in house; host or cells: E. coli BL21 (DE3)
T4 sequence (P09917 2-674 C160S/C301S/C417S/C419S limits assumed): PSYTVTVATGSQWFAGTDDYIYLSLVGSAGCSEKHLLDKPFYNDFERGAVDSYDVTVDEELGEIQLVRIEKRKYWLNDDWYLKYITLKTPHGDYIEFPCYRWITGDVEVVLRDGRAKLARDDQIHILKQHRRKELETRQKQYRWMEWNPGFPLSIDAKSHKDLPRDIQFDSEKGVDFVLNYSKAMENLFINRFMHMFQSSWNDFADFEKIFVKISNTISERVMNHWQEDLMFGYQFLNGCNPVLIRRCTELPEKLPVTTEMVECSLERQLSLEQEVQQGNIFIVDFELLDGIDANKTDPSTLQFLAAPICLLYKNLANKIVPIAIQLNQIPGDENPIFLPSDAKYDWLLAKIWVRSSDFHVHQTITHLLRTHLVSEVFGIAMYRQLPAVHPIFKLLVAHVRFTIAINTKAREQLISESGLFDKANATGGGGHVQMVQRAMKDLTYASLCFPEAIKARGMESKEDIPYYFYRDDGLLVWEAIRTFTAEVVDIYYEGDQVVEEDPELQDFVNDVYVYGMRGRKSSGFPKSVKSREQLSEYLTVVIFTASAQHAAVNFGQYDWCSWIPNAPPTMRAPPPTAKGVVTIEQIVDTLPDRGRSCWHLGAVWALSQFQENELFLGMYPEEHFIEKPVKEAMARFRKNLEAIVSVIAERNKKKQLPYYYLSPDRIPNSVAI
Method: r5-LO_WT or r5-LO_4C protein was diluted to 20 µM in gel filtration buffer; 100 µM of compound was added and incubated for a minimum time of 1 h at RT before 10 µL was injected onto a 1260 Infinity HPLC (Agilent, Santa Clara, USA) using a C3 column with a flow rate of 0.4 mL/min as published before. The HPLC was coupled with a 6230 electrospray ionization TOF LC/MS detector (Agilent, Santa Clara, CA, USA). Data were acquired using the Agilent MassHunter Acquisition software and processed with the Agilent Mass Hunter BioConfirm software (B.08.00). Peak intensities were calculated and normalized to the highest count of each data set with GraphPad Prism version 7.05 (GraphPad Software, Boston, MA, USA).
Fig. 3 Mass spectra of r5-LO_WT or r5-LO_4C incubated with inhibitors (blue or red line). 20 µM r5-LO_WT (left) or r5-LO_4C (right) was incubated with 100 µM degrasyn (A), AG556 (B), tyrphostin A9 (C), AG879 (D), or CAPE (E) at RT for at least 1 h before analysis. Measurement was performed using an Agilent 1260 Infinity HPLC with an Agilent 6230 TOF LC/MS detector. Obtained data were processed using Mass Hunter BioConfirm (B.08.00), and resulted counts were normalized to the highest peak of the spectrum

[6] = system: U2OS cells; details: human, 10 µM
[7] = system: U2OS cells; assay: Multiplex live-cell high-content assay; details: up to 48 h, normalized to DMSO
[8] = intact PMNL, 20 µM AA, 2.5 µM A23187, (95% CI), n = 3–6
[9] = IC50 for inhibition of 5-LO product formation, PMNL, intact PMNL, 20 µM AA, 2.5 µM A23187, (95% CI), n = 3–6

Compound | IC50 for inhibition of 12-HETE formation, platelets [1] | IC50 for inhibition of 15-HETE formation, PMNL [2, 8] | IC50 [3] [µM] | other results
N#C/C(=C\c1ccc(O)c(O)c1)C(N)=O [(E)-AG99] | no inhibition | no inhibition | 7.2 | –
N#C/C(=C\c1ccc(O)c(O)c1)C(=O)NCCCCc1ccccc1 [AG556] | no inhibition | – | 0.34 | inhibitor adducts to r5-LO_WT detected by mass spectrometry [4]: covalently bound to up to four cysteines; also recorded: four peaks; mass shift of inhibitor adduct ([4]; 20 µM r5-LO_WT): 336 Da; inhibitor adducts to r5-LO_4C detected by mass spectrometry [5]: only one adduct; normalized healthy cell count [6]: around 75%; IC50 [2, 8]: 5.1 µM
CC(C)(C)c1cc(C=C(C#N)C#N)cc(Br)c1O [AG1024] | – | no inhibition | 3.1 | –
O=C(/C=C/c1ccc(O)c(O)c1)OCCc1ccccc1 [CAPE, caffeic acid phenethyl ester] | no inhibition | – | 0.23 | inhibitor adducts to r5-LO_WT detected by mass spectrometry [4]: did not detect mass shifts; normalized healthy cell count [6]: around 75%; IC50 [2, 8]: 10 µM
CC(C)c1cc(/C=C(\C#N)C(=O)NCCCc2ccccc2)cc(C(C)C)c1O [SU1498] | – | did not show inhibition; also recorded: no inhibition | 0.76 | –
CN[C@@H]1C[C@H]2O[C@@](C)([C@@H]1OC)n1c3ccccc3c3c4c(c5c6ccccc6n2c5c31)C(=O)NC4 [Staurosporine] | – | – | – | normalized healthy cell count ([7]; 10 µM inhibitor): about 25%
N#CC(C#N)=Cc1ccc(O)cc1 [Tyrphostin 8] | – | no inhibition | – | IC50 for inhibition of 5-LO product formation, PMNL [3, 8]: no inhibition; IC50 for inhibition of 5-LO product formation, PMNL ([3]; intact PMNL, 20 µM AA, 2.5 µM A23187, (95% CI), n = 3–6, listed as tyrphostin 8): failed to inhibit
CC(C)(C)c1cc(C=C(C#N)C#N)cc(C(C)(C)C)c1O [Tyrphostin A9] | no inhibition | no inhibition | 1.1 | inhibitor adducts to r5-LO_WT detected by mass spectrometry [4]: did not detect mass shifts; normalized healthy cell count ([7]; 1 µM inhibitor): 57%; normalized healthy cell count ([7]; 1 µM inhibitor, listed as tyrphostin A9): about 50%; normalized healthy cell count ([7]; 10 µM inhibitor): below 50%
AG825 | – | – | – | IC50 for inhibition of 15-HETE formation, PMNL [2]: no inhibition

The next lines start with results.

IC50 for inhibition of 12-HETE formation, platelets [1] | IC50 for inhibition of 15-HETE formation, PMNL [2, 8] | IC50 [3] [µM] | Compound | other results
no inhibition | no inhibition | 5.4 | N#CC(C#N)=Cc1ccc(O)c(O)c1 [AG18] | –
– | no inhibition | – | N#C/C(=C\c1ccc(O)c(O)c1)C(=O)O [AG30] | IC50 for inhibition of 5-LO product formation, PMNL [3, 8]: no inhibition
no inhibition | no inhibition | 8 | N#CC(C#N)=Cc1cc(O)c(O)c(O)c1 [AG82] | –
– | no inhibition | – | N#CC(C#N)=Cc1ccc([N+](=O)[O-])c(O)c1 [AG126] | IC50 for inhibition of 5-LO product formation, PMNL [3, 8]: no inhibition
no inhibition | – | – | N#C/C(=C\c1ccc(O)c(O)c1)C(=O)NCc1ccccc1 [AG490] | IC50 [2, 8]: > 25 µM; IC50 [3, 9]: 1.1 µM
no inhibition | – | 0.86 | N#C/C(=C\c1ccc(O)c(O)c1)C(=O)Nc1ccccc1 [AG494] | IC50 [2, 8]: 22 µM
– | no inhibition | > 30 | COc1ccc(/C=C(/C#N)c2cccnc2)cc1OC [RG13022] | –
– | no inhibition | 5.9 | N#C/C(=C/c1cc(Cl)cc(Cl)c1)c1cccnc1 [RG14620] | –
– | moderate inhibition | – | C[C@H](NC(=O)/C(C#N)=C/c1cccc(Br)n1)c1ccccc1 [WP1066] | IC50 [2, 8]: 18 µM; IC50 [3, 9]: 0.93 µM
